Reference: ChEMBL document CHEMBL1201862, “PubChem BioAssay data set” (2004)
Calls of active or inactive are those of the source.

Legend:
Bcl-2-related protein A1 = molecular target: T1, Bcl-2-related protein A1 (Mus musculus, UniProt Q07440); assay type: functional;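 also: confirmatory dose–response counterscreen on Bfl-1, used to check hits from a UBC13 polyubiquitin inhibitor campaign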
T1 sequence (Q07440 whole entry): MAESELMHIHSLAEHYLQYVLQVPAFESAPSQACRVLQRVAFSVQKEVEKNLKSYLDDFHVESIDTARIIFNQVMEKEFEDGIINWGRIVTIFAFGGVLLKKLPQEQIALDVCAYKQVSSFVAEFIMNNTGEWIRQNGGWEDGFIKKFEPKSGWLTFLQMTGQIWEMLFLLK

[1] = molecular target: T2, Ubiquitin-conjugating enzyme E2 N (Homo sapiens, UniProt P61088); assay type: functional;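 also: Dose-response confirmation in a TR-FRET assay detecting UBC13-driven polyubiquitin chain formation, inhibition measured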
T2 sequence (P61088 whole entry): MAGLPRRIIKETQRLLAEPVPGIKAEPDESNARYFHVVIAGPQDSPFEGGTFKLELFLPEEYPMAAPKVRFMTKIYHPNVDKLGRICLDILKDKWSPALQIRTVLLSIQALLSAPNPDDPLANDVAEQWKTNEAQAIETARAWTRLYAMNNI

[2] = HIV-1 Vif–A3G interaction blockers – biochemical, TR-FRET, GST-Vif 1-94, biotin-A3G peptide, dose response retest, primary screen (AID 1117319); assay type: functional;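 also: TR-FRET signal of purified GST-Vif binding a biotinylated A3G peptide; inhibitors lower the FRET signal by blocking Vif and A3G binding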
[3] = viability of uninfected HEp-2 cells – cell-based, HTS, cytotoxicity control for RSV inhibitor project, dose response (AID 2410); assay type: functional; settings: human respiratory syncytial virus
cells [4] = experiment: cells
[5] = molecular target: T3, E3 ubiquitin-protein ligase XIAP (Homo sapiens, UniProt P98170); experiment: Counter Screen using XIAP-Bir3 for Chemical Antagonists of Bir1/2 domains of IAP-family anti-apoptotic proteins. [Related pubchem assays (depositor defined):AID1018, AID1449, AID1514, AID1638, AID1749, AID1750, AID488957, AID488963]
[6] = molecular target: T3, E3 ubiquitin-protein ligase XIAP; experiment: small molecules displacing peptide from XIAP – biochemical, IAP family, fluorescence polarization (AID 1018); assay type: functional
[7] = molecular target: Voltage-dependent T-type calcium channel subunit alpha-1H (Homo sapiens, UniProt O95180); assay type: functional;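 also: channel activity triggered by adding a high calcium stimulation buffer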
[8] = molecular target: Eukaryotic translation initiation factor 4E (Mus musculus, UniProt P63073); experiment: blockers of eIF4G binding by eIF4E – biochemical, TR-FRET, dose response (AID 855); assay type: functional;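 also: potency for disrupting eIF4E binding to eIF4GI seen as loss of FRET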
Vero [9] = experiment: cells; assay type: functional, cell-based; settings: Chlorocebus sabaeus
Estrogen receptor beta [10] = molecular target: T4, Estrogen receptor beta (Homo sapiens, UniProt Q92731);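 also: recombinant ER-beta bound to coactivator SRC1 peptide in presence of estradiol agonist; inhibitors block coactivator peptide binding and lower the FRET signal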
Estrogen receptor beta [11] = molecular target: T4, Estrogen receptor beta; experiment: blockers of SRC-3 recruitment to ERβ – biochemical, ELISA, streptavidin-HRP readout, orthogonal assay, confirmation (AID 1060)
[12] = microbe, parasite or virus in culture; assay type: functional; settings: Mycobacterium tuberculosis
[13] = THP-1 cell cytotoxicity, dose response, cytotoxicity control for non-replicating M. tuberculosis project (AID 489025); assay type: functional
[14] = HepG2 cell cytotoxicity, dose response, cytotoxicity control for non-replicating M. tuberculosis project (AID 489018); assay type: functional; settings: Mycobacterium tuberculosis
[15] = Vero E6 cell cytotoxicity, dose response, cytotoxicity control for non-replicating M. tuberculosis project, secondary assay (AID 492998); assay type: functional, VeroE6; settings: Vero C1008
cells [16] = assay type: functional
Vero [17] = experiment: cells; assay type: functional; settings: Chlorocebus sabaeus
[18] = viability inhibitors of stage V gametocytes – luminescence, dose response (AID 1117278); assay type: functional, cell-based;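 also: gametocytes exposed to compound for 24 hours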
[19] = viability loss in human Jurkat cells – cell-based, luminescence, cytotoxicity control for P. falciparum gametocyte viability project, dose response (AID 1117277); assay type: functional;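 also: potency reflects loss of cellular ATP meaning fewer viable cells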

Chain of Eukaryotic translation initiation factor 4E (P63073 whole entry): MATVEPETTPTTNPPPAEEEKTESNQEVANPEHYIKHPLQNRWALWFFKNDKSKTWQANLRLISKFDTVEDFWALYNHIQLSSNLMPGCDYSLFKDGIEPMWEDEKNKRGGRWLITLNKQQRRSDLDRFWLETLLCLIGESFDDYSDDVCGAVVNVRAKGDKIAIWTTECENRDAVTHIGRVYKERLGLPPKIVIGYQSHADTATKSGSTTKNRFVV
T4 sequence (Q92731 whole entry): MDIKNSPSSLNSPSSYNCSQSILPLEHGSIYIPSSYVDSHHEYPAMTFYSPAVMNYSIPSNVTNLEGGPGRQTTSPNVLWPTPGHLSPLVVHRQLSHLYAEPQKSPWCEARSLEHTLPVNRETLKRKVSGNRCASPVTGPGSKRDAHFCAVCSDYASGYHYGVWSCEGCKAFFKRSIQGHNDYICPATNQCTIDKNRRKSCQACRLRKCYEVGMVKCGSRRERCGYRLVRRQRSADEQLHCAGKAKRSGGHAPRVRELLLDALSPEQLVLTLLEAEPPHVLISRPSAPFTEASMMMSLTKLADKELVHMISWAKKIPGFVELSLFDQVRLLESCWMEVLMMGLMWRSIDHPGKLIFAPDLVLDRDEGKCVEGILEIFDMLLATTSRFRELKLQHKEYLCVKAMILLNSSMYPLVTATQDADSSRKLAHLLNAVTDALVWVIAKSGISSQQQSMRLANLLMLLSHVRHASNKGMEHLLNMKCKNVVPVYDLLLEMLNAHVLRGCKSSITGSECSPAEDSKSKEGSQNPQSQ
T3 sequence (P98170 whole entry): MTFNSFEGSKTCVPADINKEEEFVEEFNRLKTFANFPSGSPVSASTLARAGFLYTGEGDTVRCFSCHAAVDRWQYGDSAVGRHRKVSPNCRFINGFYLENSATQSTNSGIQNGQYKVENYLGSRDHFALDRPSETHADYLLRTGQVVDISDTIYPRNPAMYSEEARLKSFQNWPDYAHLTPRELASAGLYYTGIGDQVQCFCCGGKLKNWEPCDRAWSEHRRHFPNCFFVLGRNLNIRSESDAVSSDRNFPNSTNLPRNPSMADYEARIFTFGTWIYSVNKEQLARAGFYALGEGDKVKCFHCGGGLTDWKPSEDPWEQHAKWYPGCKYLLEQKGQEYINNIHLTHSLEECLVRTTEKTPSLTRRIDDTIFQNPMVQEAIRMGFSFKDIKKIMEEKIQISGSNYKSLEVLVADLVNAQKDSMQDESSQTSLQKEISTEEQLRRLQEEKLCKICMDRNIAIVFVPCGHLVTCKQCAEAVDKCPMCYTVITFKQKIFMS
Chain of Voltage-dependent T-type calcium channel subunit alpha-1H (O95180 whole entry): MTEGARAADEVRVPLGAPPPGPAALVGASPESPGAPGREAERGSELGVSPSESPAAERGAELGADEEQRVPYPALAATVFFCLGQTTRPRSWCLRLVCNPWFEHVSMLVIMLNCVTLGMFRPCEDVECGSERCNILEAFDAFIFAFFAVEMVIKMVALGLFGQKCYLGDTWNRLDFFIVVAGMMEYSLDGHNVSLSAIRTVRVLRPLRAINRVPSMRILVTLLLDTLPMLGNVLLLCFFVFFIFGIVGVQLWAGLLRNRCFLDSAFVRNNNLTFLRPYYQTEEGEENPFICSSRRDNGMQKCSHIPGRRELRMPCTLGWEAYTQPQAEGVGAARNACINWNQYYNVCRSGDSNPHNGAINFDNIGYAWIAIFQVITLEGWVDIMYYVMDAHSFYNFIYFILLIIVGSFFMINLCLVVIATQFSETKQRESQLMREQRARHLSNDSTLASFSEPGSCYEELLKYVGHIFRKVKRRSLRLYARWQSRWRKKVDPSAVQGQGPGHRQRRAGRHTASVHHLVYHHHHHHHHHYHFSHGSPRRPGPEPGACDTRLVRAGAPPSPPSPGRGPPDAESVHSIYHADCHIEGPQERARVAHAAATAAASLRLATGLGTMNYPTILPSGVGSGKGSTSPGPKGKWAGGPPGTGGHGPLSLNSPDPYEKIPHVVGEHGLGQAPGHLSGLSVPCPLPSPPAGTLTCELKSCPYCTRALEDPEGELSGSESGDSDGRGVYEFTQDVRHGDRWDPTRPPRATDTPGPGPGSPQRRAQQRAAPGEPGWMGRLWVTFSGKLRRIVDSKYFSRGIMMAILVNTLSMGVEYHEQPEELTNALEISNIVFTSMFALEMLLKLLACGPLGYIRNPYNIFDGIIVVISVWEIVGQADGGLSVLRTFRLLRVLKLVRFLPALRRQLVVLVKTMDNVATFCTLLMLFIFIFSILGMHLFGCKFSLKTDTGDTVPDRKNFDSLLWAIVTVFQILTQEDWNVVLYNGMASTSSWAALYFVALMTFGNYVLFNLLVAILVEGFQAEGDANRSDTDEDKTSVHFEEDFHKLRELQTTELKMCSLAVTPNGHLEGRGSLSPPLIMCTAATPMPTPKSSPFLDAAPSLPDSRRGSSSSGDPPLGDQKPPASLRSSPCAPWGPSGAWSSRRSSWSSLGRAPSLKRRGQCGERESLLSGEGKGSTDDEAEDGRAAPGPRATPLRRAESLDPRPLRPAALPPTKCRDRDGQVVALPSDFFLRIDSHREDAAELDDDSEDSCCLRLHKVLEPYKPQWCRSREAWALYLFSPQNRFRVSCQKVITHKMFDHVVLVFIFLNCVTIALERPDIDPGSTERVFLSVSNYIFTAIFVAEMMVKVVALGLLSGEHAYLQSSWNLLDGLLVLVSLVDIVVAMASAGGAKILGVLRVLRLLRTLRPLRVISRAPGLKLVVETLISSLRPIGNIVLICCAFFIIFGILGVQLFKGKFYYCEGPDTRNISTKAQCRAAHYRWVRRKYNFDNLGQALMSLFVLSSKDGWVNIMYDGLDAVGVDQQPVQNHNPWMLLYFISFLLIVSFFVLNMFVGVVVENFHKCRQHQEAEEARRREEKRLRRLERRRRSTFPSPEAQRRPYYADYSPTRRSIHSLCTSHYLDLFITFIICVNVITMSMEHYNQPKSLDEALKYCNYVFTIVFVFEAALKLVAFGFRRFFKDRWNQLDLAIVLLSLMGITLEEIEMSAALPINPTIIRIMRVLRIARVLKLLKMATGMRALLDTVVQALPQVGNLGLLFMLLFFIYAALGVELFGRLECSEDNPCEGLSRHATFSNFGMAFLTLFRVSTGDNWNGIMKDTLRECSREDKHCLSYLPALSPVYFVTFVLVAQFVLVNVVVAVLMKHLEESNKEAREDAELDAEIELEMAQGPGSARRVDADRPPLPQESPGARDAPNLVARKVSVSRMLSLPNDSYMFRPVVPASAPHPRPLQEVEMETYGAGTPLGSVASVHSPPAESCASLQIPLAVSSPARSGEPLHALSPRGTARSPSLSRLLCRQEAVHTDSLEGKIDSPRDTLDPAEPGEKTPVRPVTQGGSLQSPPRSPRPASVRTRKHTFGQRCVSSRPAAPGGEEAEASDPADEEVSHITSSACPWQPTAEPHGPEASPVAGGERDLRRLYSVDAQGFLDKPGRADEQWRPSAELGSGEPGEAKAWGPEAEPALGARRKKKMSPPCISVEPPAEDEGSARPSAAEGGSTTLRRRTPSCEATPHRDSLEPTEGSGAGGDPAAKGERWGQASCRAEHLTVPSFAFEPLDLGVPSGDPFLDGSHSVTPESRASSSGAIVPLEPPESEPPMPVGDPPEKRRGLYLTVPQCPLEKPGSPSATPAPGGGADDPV

N#Cc1ccc(OCC(=O)NNC(=S)NC(=O)C2CC2)cc1
IC50 (Bcl-2-related protein A1): > 20 µM (inactive) | IC50 [1]: 6.5 µM (active)

COC(=O)c1sc(NC(=O)c2ccc(Cn3cc(Cl)cn3)o2)c(C#N)c1C
IC50 [2]: > 100 µM (active)

CSc1nnc(Cn2c(=O)sc3ccccc32)n1-c1cccc(Cl)c1
CC50 [3]: > 50 µM (active) | IC50 (cells [4]): 8.48 µM (active)

O=C(NCc1cccs1)c1noc2c1CCCCC2
IC50 [5]: > 100 µM (inactive) | IC50 [6]: > 100 µM (not active)

Cc1cc(CNC(=O)COc2ccccc2)c2ccccc2n1
IC50 [5]: > 100 µM (inactive) | IC50 [6]: > 100 µM (not active)

Cc1cc(C)nc(N2CCCC(C(=O)Nc3cc(F)ccc3C)C2)n1 (stereo not drawn)
IC50 [5]: > 100 µM (inactive) | IC50 [6]: > 100 µM (not active)

CC1Cc2ccccc2N1C(=O)c1cc2sccc2n1Cc1ccc(F)cc1 (stereo not drawn)
EC50 [7]: 5.86 µM (active)

Cc1ccc(Nc2nc3ccccc3nc2-n2nc(C)cc2C)cc1
IC50 [8]: > 64 µM (inactive)

O=C(CSCC(=O)N1CCN(c2ccccc2)CC1)Nc1nc(-c2ccc(Cl)s2)cs1
EC50 [7]: 4.28 µM (active)

Cc1ccc(Nc2nc(=O)c3cccnc3s2)c(Br)c1
CC50 [3]: 22.8 µM (active) | IC50 (Vero [9]): > 25 µM (active) | IC50 (cells [4]): 25 µM (active)

CCCC(c1nnnn1CC(=O)OCC)N(Cc1cc2c(C)cc(C)cc2nc1O)C1CCCC1 (stereo not drawn)
IC50 (cells [4]): 6.29 µM (active)

COCCNC(C)C(=O)C12CC3CC(CC(C3)C1)C2 (stereo not drawn)
IC50 [2]: > 100 µM (active)

C=CCN1C(=O)CSc2ccc(C(=O)NCc3ccco3)cc21
IC50 [2]: > 100 µM (active)

Nc1c(Cl)cc(Cl)cc1C(=O)OCC(=O)NC1CC1
IC50 (Estrogen receptor beta [10]): 26.5 µM (active) | IC50 (Estrogen receptor beta [11]): < 0.023 µM (not active)

Cc1cccc(/C=C/c2onc(C)c2[N+](=O)[O-])n1
CC50 [12]: 14.3 µM (active) | CC50 [13]: 7.76 µM (active) | CC50 [14]: > 20 µM (active) | CC50 [15]: 6.87 µM (active) | IC50 (cells [16]): 8.06 µM (active) | CC50 (Vero [17]): 13.8 µM (active)

COC(=O)CSc1nnc(-c2cccc(NC(=O)c3ccc(C)cc3)c2)n1C
IC50 [8]: > 64 µM (inactive)

O=S(=O)(c1cccc(-c2csc(-c3ccccc3)n2)c1)N1CCOCC1
CC50 [3]: 37.8 µM (active) | IC50 (cells [4]): 28.4 µM (active)

CCOc1ccccc1CNCCNC(=O)c1nonc1N
IC50 [18]: > 109 µM (inactive) | IC50 [19]: > 83.3 µM (inactive)

COc1cc(C(=O)NCc2ccc(C(=O)NCC(OC)OC)cc2)cc(OC)c1OC
IC50 [8]: 50 µM (inactive)

Cc1cccc(OCCN2C(=O)c3ccccc3C2=O)c1
IC50 [18]: > 109 µM (inactive) | IC50 [19]: > 83.2 µM (inactive)

CC1CCCC(C)N1CC(=O)Nc1sc2c(c1C#N)CCCC2 (stereo not drawn)
IC50 (Estrogen receptor beta [11]): 0.0372 µM (not active)

Cc1nn(Cc2ccc(Cl)c(Cl)c2)c(C)c1NC(=O)c1cc(-c2ccco2)on1
EC50 [7]: 1.35 µM (active)
